Entries after “also recorded” stand apart in the source; their conditions may differ.

In data set [1] the test system is patients. The note with it: human, in vivo; cited from earlier work.
For data set [2], the system named is rats. The data set is described as follows: food and kaolin consumption and body weight in rats (semaglutide, tirzepatide). In kind it is in vivo, Sprague-Dawley rat. An excerpt: Adult male Sprague-Dawley rats (Charles River) weighing ~250 to 270 g (n = 45) at arrival were housed under a 12-hour/12-hour light/dark cycle in a temperature-controlled and humidity-controlled vivarium. Rats were individually housed in hanging wire-bottom cage with ad libitum access to chow diet (Purina Lab Diet 5001) or, when noted, to high-fat/high-sugar diet (60% fat diet, 12492, Research Diets) and tap water and had ad libitum access to kaolin pellets (Research Diets, K50001). Rats were exposed to kaolin for at least 5 days prior to measuring kaolin consumption in pica testing. Kaolin intake and food consumption were measured simultaneously as the presence of kaolin in the cage, and its subsequent ingestion, has usually negligible effects on the hypophagic and body weight–lowering effects of the treatments.
GIPFA-085 (GIP-085), tirzepatide, and GLP-140 were designed and produced by Eli Lilly and Company. GIP-085, GLP-140, and semaglutide (Cayman Chemical) were dissolved in 40 mM tris-HCl buffer (pH 8) and 0.02% Tween 80. For the study in mice, all drugs were injected subcutaneously at a volume of 5 ml/kg of body weight. In rats, all drugs were injected intraperitoneally, at a volume of 1 ml/kg of body weight, except when noted. In shrews, all drugs were injected intraperitoneally at a volume of 10 ml/kg of body weight.
In two separate cohorts of rats (n = 10 per group, body weight ~ 460 ± 9 g), food consumption, kaolin intake, and body weight were measured after an intraperitoneal administration of vehicle, semaglutide (10 and 100 nmol/kg), or tirzepatide (10 and 100 nmol/kg), respectively. Food and kaolin intake were measured at 3, 6, 24, and 48 hours postinjection, and body weight was measured at 0, 24, and 48 hours. For each drug, a within-subject paradigm was used, with each round of injections separated by 7 days.

Data set [3] deals with shrews. Nature of the data set: emesis, tirzepatide dose-response, shrews. Conditions: 10, 100 and 1000 nmol/kg ip; 120 min; n = 9 per group. In kind it is in vivo, Suncus murinus. An excerpt:
Adult male shrews (S. murinus) weighing ~50 to 80 g (n = 84 total) were bred and maintained in the De Jonghe Lab (University of Pennsylvania). These animals were offspring from a colony previously maintained at the University of Pittsburgh Cancer Institute (C. Horn); a Taiwanese strain was derived from stock originally supplied by the Chinese University of Hong Kong. Shrews were singly housed in plastic cages (37.3 cm by 23.4 cm by 14 cm, Innovive) under a 12-hour/12-hour light/dark cycle in a temperature-controlled and humidity-controlled environment. Animal were fed ad libitum with a mixture of feline (75%, Laboratory Feline Diet 5003, Lab Diet) and mink food (25%, High Density Ferret Diet 5LI4, Lab Diet) and had ad libitum access to tap water except where noted.
We then evaluated the emetogenic actions of tirzepatide (10, 100, and 1000 nmol/kg) or vehicle in a different cohort of shrews (n = 9). The animals were habituated to the experimental conditions as described above. Treatments were separated by 7 days. Emetic episodes were recorded and quantified as described above.

Take “AMG 133: bispecific molecule engineered by conjugating a GIPR antagonizing antibody with a GLP-1R agonist”: the patients reporting nausea in data set [1] is 100%.
As to `CC[C@H](C)[C@H](NC(=O)[C@H](CC(C)C)NC(=O)[C@H](Cc1c[nH]c2ccccc12)NC(=O)[C@H](CCC(N)=O)NC(=O)[C@@H](NC(=O)[C@H](Cc1ccccc1)NC(=O)[C@H](C)NC(=O)[C@H](CCCCNC(=O)COCCOCCNC(=O)COCCOCCNC(=O)CC[C@H](NC(=O)CCCCCCCCCCCCCCCCCCC(=O)O)C(=O)O)NC(=O)[C@H](CCC(N)=O)NC(=O)[C@H](C)NC(=O)[C@@H](NC(=O)[C@H](CCCCN)NC(=O)[C@H](CC(=O)O)NC(=O)[C@H](CC(C)C)NC(=O)C(C)(C)NC(=O)[C@@H](NC(=O)[C@H](CO)NC(=O)[C@H](Cc1ccc(O)cc1)NC(=O)[C@H](CC(=O)O)NC(=O)[C@H](CO)NC(=O)[C@@H](NC(=O)[C@H](Cc1ccccc1)NC(=O)[C@@H](NC(=O)CNC(=O)[C@H](CCC(=O)O)NC(=O)C(C)(C)NC(=O)[C@@H](N)Cc1ccc(O)cc1)[C@@H](C)O)[C@@H](C)O)[C@@H](C)CC)[C@@H](C)CC)C(C)C)C(=O)N[C@@H](C)C(=O)NCC(=O)NCC(=O)N1CCC[C@H]1C(=O)N[C@@H](CO)C(=O)N[C@@H](CO)C(=O)NCC(=O)N[C@@H](C)C(=O)N1CCC[C@H]1C(=O)N1CCC[C@H]1C(=O)N1CCC[C@H]1C(=O)N[C@@H](CO)C(N)=O` [tirzepatide], the kaolin intake result in data set [2] (100 nmol/kg ip, n = 10 per group, vs vehicle) was “causes significant kaolin intake”. Moreover, in data set [2] (100 nmol/kg ip, n = 10 to 20 per group), the “kaolin consumption, semaglutide vs tirzepatide” value is on record as “induces less kaolin consumption in rats compared to equipotent doses of semaglutide”. Besides, in data set [2] (tirzepatide, rats (dose not stated at this place)), the “kaolin consumption vs vehicle, tirzepatide” value was “still significantly elevated compared to vehicle-treated animals”. For the same compound, the emesis result in data set [3] is given as “complete absence of emesis; also recorded: no emesis occurred; also recorded: complete absence of any emetic episode”.
